Results reported in ChEMBL document CHEMBL1148255, “Facile synthesis of fused 1,2,4-triazolo[1,5-c]pyrimidine derivatives as human adenosine A3 receptor ligands” (Bioorg Med Chem Lett, 2004).
pIC50: −log10 of the molar value.

Target: Adenosine receptor A2a (Homo sapiens, UniProt P29274)
Assay: biochemical

Chain of Adenosine receptor A2a (P29274 whole entry): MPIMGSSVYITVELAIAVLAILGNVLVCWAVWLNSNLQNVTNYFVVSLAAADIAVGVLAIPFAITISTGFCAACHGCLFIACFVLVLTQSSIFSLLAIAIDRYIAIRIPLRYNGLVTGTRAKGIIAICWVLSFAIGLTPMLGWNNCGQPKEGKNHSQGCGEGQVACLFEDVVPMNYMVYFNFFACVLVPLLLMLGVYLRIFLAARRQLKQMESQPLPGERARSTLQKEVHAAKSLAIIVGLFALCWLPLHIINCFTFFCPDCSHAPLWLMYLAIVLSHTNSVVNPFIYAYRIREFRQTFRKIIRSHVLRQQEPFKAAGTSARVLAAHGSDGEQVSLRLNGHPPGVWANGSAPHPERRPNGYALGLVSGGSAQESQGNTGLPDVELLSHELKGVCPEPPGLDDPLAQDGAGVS

pIC50	SMILES
< 5.00	CCCCc1nc2[nH]cnc2c2nc(-c3ccc(C(F)(F)F)cc3)nn12
